According to patent publication US20140323418A1, “SELECTIVE KINASE INHIBITORS” (PORTOLA PHARMACEUTICALS, INC., priority 2011, published 2014):

The molecules below were run against T1, full length active recombinant SYK enzyme (Homo sapiens, UniProt P43405) (assay: Inhibition of Syk tyrosine phosphorylation activity (LANCE TR-FRET kinase assay)). Settings: 1 nM SYK, 550 nM substrate, 100 μM ATP, 1 hour room temperature.
T1 construct: full length active recombinant SYK enzyme (Millipore, Calif.); purchased Millipore
Format: biochemical

| Structure (SMILES) | IC50 [nM] |
| --- | --- |
| Cn1ccc2c(Nc3nc(N[C@@H]4CCCC[C@@H]4O)ncc3C(N)=O)cccc21 [Example 107, 2-((1R,2S)-2-hydroxycyclohexylamino)-4-(1-methyl-1H-indol-4-ylamino)pyrimidine-5-carboxamide] | 100 to 1000 |
| NC(=O)c1cnc(N[C@@H]2CCCC(F)(F)[C@@H]2N)nc1Nc1cnc2ccccc2c1 [Example 168, 2-((1R,2R)-2-amino-3,3-difluorocyclohexylamino)-4-(quinolin-3-ylamino)pyrimidine-5-carboxamide] | 100 to 1000 |
| NC(=O)c1cnc(N[C@@H]2CCCC[C@@H]2N)nc1Nc1cccc(-n2ncc(O)n2)c1 [Example 252, 2-(((1R,2S)-2-aminocyclohexyl)amino)-4-((3-(4-hydroxy-2H-1,2,3-triazol-2-yl)phenyl)amino)pyrimidine-5-carboxamide] | 1 to 10 |
| NC(=O)c1cnc(N[C@H](C2CC2)C2(N)CC2)nc1Nc1ccc2c(c1)CCCN2 [Example 153, (R)-2-(1-(1-aminocyclopropyl)(cyclopropyl)methylamino)-4-(1,2,3,4-tetrahydroquinolin-6-ylamino)pyrimidine-5-carboxamide] | 10 to 100 |
| CC(=O)N[C@H]1CCCC[C@H]1Nc1ncc(C(N)=O)c(Nc2cccc(-n3nccn3)c2)n1 [Example 196] | 100 to 1000 |
| NC(=O)c1cnc(N[C@@H]2CCCC(F)(F)[C@@H]2N)nc1Nc1ccccc1 [Example 27, 2-(((1R,2R)-2-amino-3,3-difluorocyclohexyl)amino)-4-(phenylamino)pyrimidine-5-carboxamide] | 100 to 1000 |
| Cc1cccc(Nc2nc(N[C@H](C)C3(N)CC3)ncc2C(N)=O)c1 [Example 145, (R)-2-(1-(1-aminocyclopropyl)ethylamino)-4-(m-tolylamino)pyrimidine-5-carboxamide] | 1 to 10 |
| NC(=O)c1cnc(NC2CCNC2=O)nc1Nc1cnc2ccccc2c1 (stereo not drawn) [Example 216, 2-((2-oxopyrrolidin-3-yl)amino)-4-(quinolin-3-ylamino)pyrimidine-5-carboxamide] | > 1000 |
| N#Cc1cccc(Nc2nc(N[C@@H]3CCOC[C@@H]3N)ncc2C(N)=O)c1 [Example 53, 2-(((3R,4R)-3-aminotetrahydro-2H-pyran-4-yl)amino)-4-((3-cyanophenyl)amino)pyrimidine-5-carboxamide] | 10 to 100 |
| CCn1ccc2c(Nc3nc(NC[C@@H](N)CC(F)F)ncc3C(N)=O)cccc21 [Example 76, (S)-2-(2-amino-4,4-difluorobutylamino)-4-(1-ethyl-1H-indol-4-ylamino)pyrimidine-5-carboxamide] | 1 to 10 |
| NC(=O)c1cnc(N[C@@H]2CCCC(F)(F)[C@@H]2N)nc1Nc1cccc(Cl)c1 [Example 28, 2-(((1R,2R)-2-amino-3,3-difluorocyclohexyl)amino)-4-((3-chlorophenyl)amino)pyrimidine-5-carboxamide] | 10 to 100 |
| Cc1cccc(Nc2nc(NCC(N)C(C)(F)F)ncc2C(N)=O)c1 (stereo not drawn) [Example 105, 4-(m-toluidino)-2-(2-amino-3,3-difluorobutylamino)pyrimidine-5-carboxamide] | 100 to 1000 |
| NC(=O)c1cnc(N[C@@H]2CCCC[C@@H]2NCCO)nc1Nc1cccc(-n2nccn2)c1 [Example 12, 4-(3-(2H-1,2,3-triazol-2-yl)phenylamino)-2-((1R,2S)-2-(2-hydroxyethylamino)cyclohexylamino)pyrimidine-5-carboxamide] | 100 to 1000 |
| CC(C)[C@@H](Nc1ncc(C(N)=O)c(Nc2cccc(-n3nccn3)c2)n1)C1(N)CC1 [Example 138, (R)-4-(3-(2H-1,2,3-triazol-2-yl)phenylamino)-2-(1-(1-aminocyclopropyl)-2-methylpropylamino)pyrimidine-5-carboxamide] | 1 to 10 |
| CC(C)C[C@@H](Nc1ncc(C(N)=O)c(Nc2cccc(-n3cccn3)c2)n1)C1(N)CC1 [Example 139, (R)-4-(3-(1H-pyrazol-1-yl)phenylamino)-2-(1-(1-aminocyclopropyl)-3-methylbutylamino)pyrimidine-5-carboxamide] | 1 to 10 |
| CCN1CC[C@@H](Nc2ncc(C(N)=O)c(Nc3cccc(-n4nccn4)c3)n2)C1 [Example 223] | > 1000 |
| Cc1ccc(Nc2nc(NC[C@@H](N)CC(F)F)ncc2C(N)=O)cc1 [Example 83, (S)-4-(p-toluidino)-2-(2-amino-4,4-difluorobutylamino)pyrimidine-5-carboxamide] | 100 to 1000 |
| COC(=O)C(C)(C)c1cccc(Nc2nc(N[C@@H]3CCCC[C@@H]3N)ncc2C(N)=O)c1 [Example 201] | 100 to 1000 |
| NC(=O)c1cnc(N[C@@H]2CCNC2)nc1Nc1cccc(-c2ncccn2)c1 [Example 222] | 10 to 100 |
| NC(=O)c1cnc(N[C@@H]2CCCC[C@@H]2N)nc1Nc1csc2ncccc12 [Example 44, 2-(((1R,2S)-2-aminocyclohexyl)amino)-4-(thieno[2,3-b]pyridin-3-ylamino)pyrimidine-5-carboxamide] | 1 to 10 |

| Structure (SMILES) | IC50 [nM] |
| --- | --- |
| CN1C(=O)Cc2c(Nc3nc(N[C@@H]4CCCC[C@@H]4N)ncc3C(N)=O)cccc21 [Example 96, 2-((1R,2S)-2-aminocyclohexylamino)-4-(1-methyl-2-oxoindolin-4-ylamino)pyrimidine-5-carboxamide] | 100 to 1000 |
| CC[C@@H](Nc1ncc(C(N)=O)c(Nc2cccc(C3=NCCCN3)c2)n1)C1(N)CC1 [Example 133, (R)-2-(1-(1-aminocyclopropyl)propylamino)-4-(3-(1,4,5,6-tetrahydropyrimidin-2-yl)phenylamino)pyrimidine-5-carboxamide] | 100 to 1000 |
| NC(=O)c1cnc(NC[C@@H](N)CC(F)F)nc1Nc1cccc(-c2ncccn2)c1 [Example 95, (S)-2-(2-amino-4,4-difluorobutylamino)-4-(3-(pyrimidin-2-yl)phenylamino)pyrimidine-5-carboxamide] | 100 to 1000 |
| CC(C)[C@@H](Nc1ncc(C(N)=O)c(Nc2cc(F)cc(F)c2)n1)C1(N)CC1 [Example 160, (R)-2-(1-(1-aminocyclopropyl)-2-methylpropylamino)-4-(3,5-difluorophenylamino)pyrimidine-5-carboxamide] | 10 to 100 |
| Cn1ccc2c(Nc3nc(NCC4CCCC4)ncc3C(N)=O)cccc21 [Example 111, 2-(cyclopentylmethylamino)-4-(1-methyl-1H-indol-4-ylamino)pyrimidine-5-carboxamide] | 100 to 1000 |
| Cn1ccc2c(Nc3nc(NC4CCCCC4)ncc3C(N)=O)cccc21 [Example 108, 2-(cyclohexylamino)-4-(1-methyl-1H-indol-4-ylamino)pyrimidine-5-carboxamide] | 100 to 1000 |
| CC[C@@H](Nc1ncc(C(N)=O)c(Nc2cccc(-c3ncccn3)c2)n1)C1(N)CC1 [Example 131, (R)-2-(1-(1-aminocyclopropyl)propylamino)-4-(3-(pyrimidin-2-yl)phenylamino)pyrimidine-5-carboxamide] | 1 to 10 |
| CC(NC1CCCC[C@H]1Nc1ncc(C(N)=O)c(Nc2cccc(-n3nccn3)c2)n1)N[C@H]1CCCC[C@H]1Nc1ncc(C(N)=O)c(Nc2cccc(-n3nccn3)c2)n1 (stereo partly drawn) [Example 15, 2,2′-(1R,1′R,2S,2′S)-2,2′-(ethane-1,1-diylbis(azanediyl))bis(cyclohexane-2,1-diyl)bis(azanediyl)bis(4-(3-(2H-1,2,3-triazol-2-yl)phenylamino)pyrimidine-5-carboxamide)] | 100 to 1000 |
| Cn1ccc2c(Nc3nc(NC[C@@H](N)CC(F)F)ncc3C(N)=O)cccc21 [Example 85, (S)-2-(2-amino-4,4-difluorobutylamino)-4-(1-methyl-1H-indol-4-ylamino)pyrimidine-5-carboxamide] | 1 to 10 |
| COc1ccc(Nc2ncc(C(N)=O)c(N[C@H]3CC[C@@H](N)CC3)n2)cc1 [Example 185, 4-(4-aminocyclohexylamino)-2-(4-methoxyphenylamino)pyrimidine-5-carboxamide] | 10 to 100 |
| Cn1ccc2c(Nc3nc(NCC4CC4)ncc3C(N)=O)cccc21 [Example 112, 2-(cyclopropylmethylamino)-4-(1-methyl-1H-indol-4-ylamino)pyrimidine-5-carboxamide] | 100 to 1000 |
| CN(C)c1ncc(C(N)=O)c(Nc2cccc(-n3nccn3)c2)n1 [Example 3, 4-(3-(2H-1,2,3-triazol-2-yl)phenylamino)-2-(dimethylamino)pyrimidine-5-carboxamide] | 100 to 1000 |
| NC(=O)c1cnc(N[C@@H]2CCCC[C@@H]2N)nc1Nc1cncc(-n2cccn2)c1 [Example 48, 4-((5-(1H-pyrazol-1-yl)pyridin-3-yl)amino)-2-(((1R,2S)-2-aminocyclohexyl)amino)pyrimidine-5-carboxamide] | 10 to 100 |
| NC(=O)c1cnc(N[C@@H]2CCCC(F)(F)[C@@H]2N)nc1Nc1cccc(-n2nccn2)c1 [Example 13] | 100 to 1000 |
| NC(=O)c1cnc(N[C@@H]2CCCC[C@@H]2NC=O)nc1Nc1cccc(-n2nccn2)c1 [Example 10, 4-(3-(2H-1,2,3-triazol-2-yl)phenylamino)-2-((1R,2S)-2-formamidocyclohexylamino)pyrimidine-5-carboxamide] | 100 to 1000 |
| NC(=O)c1cnc(N[C@@H]2CCOC[C@@H]2N)nc1Nc1ccc(Cl)cc1 [Example 51, 2-(((3R,4R)-3-aminotetrahydro-2H-pyran-4-yl)amino)-4-((4-chlorophenyl)amino)pyrimidine-5-carboxamide] | 10 to 100 |
| Cc1ccc(Nc2nc(N[C@H](C)C3(N)CC3)ncc2C(N)=O)cc1 [Example 146, (R)-2-(1-(1-aminocyclopropyl)ethylamino)-4-(p-tolylamino)pyrimidine-5-carboxamide] | 10 to 100 |
| C[C@@H](Nc1ncc(C(N)=O)c(Nc2cccc(-c3ncccn3)c2)n1)C1(N)CC1 [Example 141, (R)-2-(1-(1-aminocyclopropyl)ethylamino)-4-(3-(pyrimidin-2-yl)phenylamino)pyrimidine-5-carboxamide] | 1 to 10 |
| CCOC(=O)[C@@H]1CC[C@@H](Nc2ncc(C(N)=O)c(Nc3cccc(C)c3)n2)[C@@H](N)C1 (racemic) [Example 188, (1R,3S,4R)-ethyl 3-amino-4-(5-carbamoyl-4-(m-tolylamino)pyrimidin-2-ylamino)cyclohexanecarboxylate] | 10 to 100 |
